In PubChem BioAssay AID2060487 (Molecular Pharmacology Branch, DTP, NCI, 2025):
pIC50: −log10 of the molar value. Blank lines part the entries; values can stand above or below the molecule they belong to.

Test system: 997537-175-T-J1-PDC complex spheroid viability
Assay: Anticancer human tumor 997537-175-T-J1-PDC patient-derived colon adenocarcinoma cell line growth inhibition [GQUAD]
Details: for pIC50: curve of first compound; for viability, T/C: stronger effect = lower value
Excerpt: DNA G-quadruplex Stabilizer Agents in Combinations in Complex Spheroids
A high-throughput screen of multi-cell type tumor spheroids was designed to identify active combinations of DNA G-quadruplex stabilizer agents and targeted small molecules. Complex spheroids include a stromal component modeled by human endothelial cells (HUVEC) and fibroblasts modeled by human mesenchymal stem cells (MSCs). The concentration ranges selected for each drug and investigational agent were based upon clinically achievable concentrations if the clinical Cmax of the agent was known.
Compounds. The drugs and investigational agents: pidnarulex (CX-5461; NSC782164), APTO-253 (NSC789042), BRACO-19 (NSC847499), peposertib (NSC802822), ceralasertib (NSC780249), elimusertib (NSC800525), camonsertib (NSC841442), AZD-1390 (NSC803789), olaparib (NSC753686), talazoparib (NSC767125), ART-558 (NSC835418), sotorasib (NSC818433), MRTX-1133 (NSC836407), SN-38 (NSC673596), topotecan (NSC609699), etoposide (NSC141540), doxorubicin (NSC123127), gemcitabine (NSC613327), 5-fluorouracil (NSC19893), paclitaxel (NSC125973), vemurafenib (NSC761431), panobinostat (NSC761190), R-306465 (JNJ-16241199; NSC773264), adavosertib (NSC754352), TP-3654 (NSC805149), carboplatin (NSC241240), KSQ-4279 (NSC840948), and staurosporine (NSC755774) were obtained from the National Cancer Institute (NCI) Developmental Therapeutics Program Chemical Repository (34). The FDA-approved anticancer drug set is available from the NCI Developmental Therapeutics Program. […] The stock solutions were prepared in dimethyl sulfoxide (DMSO, Sigma-Aldrich, St. Louis, MO, cat. D2650) at 800-fold the tested concentration and stored at -70 degrees C prior to their use. All drugs and investigational agents were tested over a range starting from a high concentration at or near the clinical Cmax and decreasing in half-log increments. If the clinical Cmax for an agent had not been determined, the highest concentration tested was 10 microM.
2.3 Cell Culture. All cells were maintained in an incubator at 37 degrees C and 5% CO2 with 95% humidity. The PDC lines were cultured according to standard operating procedures established by the NCI PDMR. All PDCs were thawed and cultured in Matrigel-coated flasks prepared with a working solution of 1X Ham's F-12 nutrient mix, without supplementation (Invitrogen, cat. 11765054), 100 U/mL penicillin-streptomycin (Invitrogen, cat. 15140122), and 2.5% Matrigel (Corning Inc., cat. 354248) for the first three passages. The 857933-349-R-J2-PDC line was cultured in 6C/Colon 1B media, which includes advanced DMEM/F-12 (Thermo Fisher Scientific, cat. 12634028), 10 mM HEPES (Thermo Fisher Scientific, cat. 15630080), 1X GlutaMAX supplement (Thermo Fisher Scientific, cat. 35050061), 0.1 mg/mL primocin (InvivoGen, cat. ant-pm-2), 10% defined fetal bovine serum, heat inactivated (HyClone Laboratories Inc., cat. SH30070.03HI), 50% L-WRN conditioned media (ATCC, cat. CRL-3276), 1.25 mM N-Acetyl-L-cysteine (Sigma-Aldrich, cat. A9165), 10 mM nicotinamide (Sigma-Aldrich, cat. N0636), 1X B-27 supplement (Thermo Fisher Scientific, cat. 17504044), 1X N-2 supplement (Thermo Fisher Scientific, cat. 17502048), 10 microM Y-27632 dihydrochloride (Tocris Bioscience, cat. 1254), and 50 ng/mL human EGF recombinant protein (Thermo Fisher Scientific, cat. PHG0311). The 485176-168-R4-J1-PDC line was cultured in Panc media, which includes all 6C/Colon 1B media components plus 100 ng/mL human FGF-10 (Thermo Fisher Scientific, cat. 100-26), 500 nM SB-431542 (Selleckchem, cat. S1067), and gastrin (Tocris, cat. 3006).
[…]

[1] = second compound 0.0316 µM, first compound 0.0316 µM
[2] = second compound 0.0316 µM, first compound 0.316 µM
[3] = second compound 0.1 µM, first compound 0.0316 µM
[4] = second compound 0.1 µM, first compound 0.316 µM
[5] = second compound 0.316 µM, first compound 0.0316 µM
[6] = second compound 0.316 µM, first compound 0.316 µM
[7] = second compound 1 µM, first compound 0.0316 µM
[8] = second compound 1 µM, first compound 0.316 µM
[9] = second compound 3.16 µM, first compound 0.0316 µM
[10] = second compound 3.16 µM, first compound 0.316 µM
[11] = second compound 10 µM, first compound 0.0316 µM
[12] = second compound 10 µM, first compound 0.316 µM
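Also: spheroids exposed to the agents for 7 days.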
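For viability, T/C in this document: 100% = DMSO vehicle control viability.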

SMILES: CC(C)(O)C1CCC(Nc2ccc3ncc(-c4cccc(C(F)(F)F)c4)n3n2)CC1 (centres undefined) + Cc1[nH]c2ccc(F)cc2c1-c1nc2c3cccnc3c3ncccc3c2[nH]1
pIC50 (second compound 0.0316 µM): < 5.00
pIC50 (second compound 0.1 µM): < 5.00
pIC50 (second compound 0.316 µM): < 5.00
pIC50 (second compound 1 µM): < 5.00
pIC50 (second compound 3.16 µM): < 5.00
pIC50 (second compound 10 µM): < 5.00
viability, T/C [1]: 114%
viability, T/C (second compound 0.0316 µM, first compound 0.1 µM): 107%
viability, T/C [2]: 103%
viability, T/C (second compound 0.0316 µM, first compound 1 µM): 108%
viability, T/C (second compound 0.0316 µM, first compound 3.16 µM): 107%
viability, T/C (second compound 0.0316 µM, first compound 10 µM): 114%
viability, T/C [3]: 120%
viability, T/C (second compound 0.1 µM, first compound 0.1 µM): 103%
viability, T/C [4]: 97.5%
viability, T/C (second compound 0.1 µM, first compound 1 µM): 103%
viability, T/C (second compound 0.1 µM, first compound 3.16 µM): 99.3%
viability, T/C (second compound 0.1 µM, first compound 10 µM): 105%
viability, T/C [5]: 101%
viability, T/C (second compound 0.316 µM, first compound 0.1 µM): 105%
viability, T/C [6]: 108%
viability, T/C (second compound 0.316 µM, first compound 1 µM): 101%
viability, T/C (second compound 0.316 µM, first compound 3.16 µM): 104%
viability, T/C (second compound 0.316 µM, first compound 10 µM): 99.4%
viability, T/C [7]: 115%
viability, T/C (second compound 1 µM, first compound 0.1 µM): 99%
viability, T/C [8]: 101%
viability, T/C (second compound 1 µM, first compound 1 µM): 101%
viability, T/C (second compound 1 µM, first compound 3.16 µM): 97.7%
viability, T/C (second compound 1 µM, first compound 10 µM): 90.5%
viability, T/C [9]: 94.9%
viability, T/C (second compound 3.16 µM, first compound 0.1 µM): 97.2%
viability, T/C [10]: 93.5%
viability, T/C (second compound 3.16 µM, first compound 1 µM): 90.7%
viability, T/C (second compound 3.16 µM, first compound 3.16 µM): 104%
viability, T/C (second compound 3.16 µM, first compound 10 µM): 96.9%
viability, T/C [11]: 98.1%
viability, T/C (second compound 10 µM, first compound 0.1 µM): 80.3%
viability, T/C [12]: 88.9%
viability, T/C (second compound 10 µM, first compound 1 µM): 97.4%
viability, T/C (second compound 10 µM, first compound 3.16 µM): 78.3%
viability, T/C (second compound 10 µM, first compound 10 µM): 79.6%

pIC50 (second compound 0.0316 µM): < 6.50
pIC50 (second compound 0.1 µM): < 6.50
pIC50 (second compound 0.316 µM): < 6.50
pIC50 (second compound 1 µM): < 6.50
pIC50 (second compound 3.16 µM): < 6.50
pIC50 (second compound 10 µM): < 6.50
SMILES: Cn1ncnc1[C@H]1c2n[nH]c(=O)c3cc(F)cc(c23)N[C@@H]1c1ccc(F)cc1 + Cc1cnc(CNC(=O)c2c(=O)c3ccc(N4CCCN(C)CC4)nc3n3c2sc2ccccc23)cn1
viability, T/C (second compound 0.0316 µM, first compound 0.000999 µM): 96.5%
viability, T/C (second compound 0.0316 µM, first compound 0.00316 µM): 90.8%
viability, T/C (second compound 0.0316 µM, first compound 0.00999 µM): 90.8%
viability, T/C [1]: 86.6%
viability, T/C (second compound 0.0316 µM, first compound 0.0999 µM): 76.9%
viability, T/C [2]: 87.4%
viability, T/C (second compound 0.1 µM, first compound 0.000999 µM): 106%
viability, T/C (second compound 0.1 µM, first compound 0.00316 µM): 79.2%
viability, T/C (second compound 0.1 µM, first compound 0.00999 µM): 106%
viability, T/C [3]: 52.1%
viability, T/C (second compound 0.1 µM, first compound 0.0999 µM): 89.6%
viability, T/C [4]: 85%
viability, T/C (second compound 0.316 µM, first compound 0.000999 µM): 107%
viability, T/C (second compound 0.316 µM, first compound 0.00316 µM): 93.8%
viability, T/C (second compound 0.316 µM, first compound 0.00999 µM): 86.4%
viability, T/C [5]: 80.8%
viability, T/C (second compound 0.316 µM, first compound 0.0999 µM): 98.7%
viability, T/C [6]: 85.5%
viability, T/C (second compound 1 µM, first compound 0.000999 µM): 89.4%
viability, T/C (second compound 1 µM, first compound 0.00316 µM): 89.9%
viability, T/C (second compound 1 µM, first compound 0.00999 µM): 94.4%
viability, T/C [7]: 116%
viability, T/C (second compound 1 µM, first compound 0.0999 µM): 95%
viability, T/C [8]: 108%
viability, T/C (second compound 3.16 µM, first compound 0.000999 µM): 104%
viability, T/C (second compound 3.16 µM, first compound 0.00316 µM): 86.9%
viability, T/C (second compound 3.16 µM, first compound 0.00999 µM): 96.2%
viability, T/C [9]: 100%
viability, T/C (second compound 3.16 µM, first compound 0.0999 µM): 94.4%
viability, T/C [10]: 106%
viability, T/C (second compound 10 µM, first compound 0.000999 µM): 87.2%
viability, T/C (second compound 10 µM, first compound 0.00316 µM): 98.9%
viability, T/C (second compound 10 µM, first compound 0.00999 µM): 97.7%
viability, T/C [11]: 103%
viability, T/C (second compound 10 µM, first compound 0.0999 µM): 96.4%
viability, T/C [12]: 98.3%
